The source of these data is publication PMC7070818 (Clinical and Translational Science, 2019).

Like-named read-outs stand apart in the source and are kept apart here.

Data set [1] is classed as in vivo, human. The following applies: for AUC(0-t): AUC0–23 hours; for AUC(0-inf): AUC0–∞; for Tmax: median (range).
The conditions of data set [2]: fasted state; cited from earlier work.
For data set [3] the following is noted: cited from earlier work.
Data set [4] has as its system Bruton's tyrosine kinase (BTK). The settings on record: cited from earlier work.
Where [5] appears, read: male, human, plasma, oral, 140 mg, placebo phase, 140‐mg ibrutinib dose, geometric mean (geometric CV).
The mark [6] stands for this setting: male, human, plasma, oral, itraconazole phase, dose‐adjusted to a 140‐mg dose, geometric mean (geometric CV).
Where [7] appears, read: male, human, plasma, oral, itraconazole phase, unadjusted, 15‐mg ibrutinib dose, geometric mean (geometric CV).
[8] abbreviates: itraconazole phase (15 mg, unadjusted) vs placebo phase (140 mg).
Where [9] appears, read: itraconazole phase (dose‐adjusted to 140 mg) vs placebo phase.
The mark [10] stands for this setting: itraconazole phase vs placebo phase.
Setting [11] is: itraconazole phase, dose‐adjusted to a 140‐mg dose, geometric mean (geometric CV).
Where [12] appears, read: itraconazole phase, unadjusted, 15‐mg ibrutinib dose, geometric mean (geometric CV).
Setting [13] is: placebo phase, 140‐mg ibrutinib dose, geometric mean (geometric CV).
Setting [14] is: unadjusted, 15 mg ibrutinib during itraconazole, 140 mg during placebo.

Regarding `C=CC(=O)N1CCC[C@@H](n2nc(-c3ccc(Oc4ccccc4)cc3)c3c(N)ncnc32)C1` [Ibrutinib, ibrutinib, reference compound], the Cmax in data set [1] (male, human, plasma, oral) was 192 ng/mL; in data set [1] (male, human, plasma, po), 20.6 ng/mL; in data set [1] (male, human, plasma, po, 140 mg) it was 22 ng/mL. The AUC(0-t) – broadly, exposure summed from dosing to a finite time, without extrapolation to infinity – turned out to be 74.4 ng·h/mL in data set [1] (setting [5]), 755 ng·h/mL in data set [1] (setting [6]) and 80.9 ng·h/mL in data set [1] (setting [7]). The results for the AUC(0-inf) in data set [1] (setting [5]), in data set [1] (setting [6]) and in data set [1] (setting [7]) were 76.5 ng·h/mL, 764 ng·h/mL and 81.9 ng·h/mL, respectively. In addition, in data set [2], the Mean oral bioavailability entry is recorded as “about 3%”. In addition, the “Enhancement of bioavailability by food” value in data set [3] is reported as “about twofold”. Besides, the “Increase of AUC by ketoconazole” value in data set [3] (fasted state, healthy volunteers) was 24 fold. Further, the “Increase of AUC by grapefruit juice” value in data set [3] (fed conditions, healthy adults) is 2.2 fold.
For `Nc1ncnc2c1c(-c1ccc(Oc3ccccc3)cc1)nn2[C@@H]1CCCN(C(=O)C(O)CO)C1` (stereo partly shown) [PCI‐45227], the “AUC0–23 hours geometric mean ratio (90% CI)” value in data set [1] (setting [8]) was 0.10 (0.08, 0.11); in data set [1] (setting [9]), 0.91 (0.78, 1.07). The “AUC0–∞ geometric mean ratio (90% CI)” value in data set [1] (setting [8]) is reported as 0.10 (0.09, 0.12); in data set [1] (setting [9]), 0.97 (0.82, 1.16). Besides, the “Cmax geometric mean ratio (90% CI)” value in data set [1] (setting [8]) was 0.07 (0.06, 0.09); in data set [1] (setting [9]), 0.68 (0.59, 0.79). Further, the “t1/2 geometric mean ratio (90% CI)” value in data set [1] (itraconazole phase (dose‐adjusted) column vs placebo phase) is given as 1.3 (1.10, 1.46); in data set [1] (setting [10]), 1.3 (1.10, 1.46). For the same molecule, the t1/2 in data set [1] (itraconazole phase (dose‐adjusted) column, geometric mean (geometric CV)) is recorded as 8.1 (0.28) hour; in data set [1] (itraconazole phase, 15‐mg ibrutinib dose, geometric mean (geometric CV)), 8.1 (0.28) hour; in data set [1] (setting [13]), 6.4 (0.27) hour. Besides, the “PCI‐45227/Ibrutinib AUC0‐∞ ratio, geometric mean ratio (90% CI)” value in data set [1] (setting [10]) was 0.10 (0.08, 0.12). In addition, the “AUC0–23 hours” value was 214.3 (0.36) ng·hour/mL in data set [1] (setting [11]), 23.0 (0.36) ng·hour/mL in data set [1] (setting [12]) and 235.2 (0.43) ng·hour/mL in data set [1] (setting [13]). Besides, the “AUC0–∞” value in data set [1] (setting [11]) is given as 256.0 (0.42) ng·hour/mL; in data set [1] (setting [12]), 27.4 (0.42) ng·hour/mL; in data set [1] (setting [13]) it was 262.8 (0.45) ng·hour/mL. The Cmax in data set [1] (setting [11]) is listed as 21.2 (0.28) ng/mL. Also, the Tmax in data set [1] (itraconazole phase, 15‐mg ibrutinib dose) was 3 (1.5–4) hour; in data set [1] (placebo phase, 140‐mg ibrutinib dose), 3 (1.5–4) hour. The “PCI‐45227/Ibrutinib AUC0‐∞ ratio” value in data set [1] (itraconazole phase, geometric mean (geometric CV)) is 0.34 (0.28); in data set [1] (placebo phase, geometric mean (geometric CV)), 3.4 (0.57). Besides, in data set [1] (itraconazole vs placebo), the “PCI‐45227/Ibrutinib AUC0–∞ ratio during itraconazole, relative to control” value is 10 % of control. Also, in data set [1] (setting [14]), the “AUC0‐∞ during itraconazole phase relative to placebo phase” value amounted to 10%. In addition, the “Cmax during itraconazole phase relative to placebo phase” value in data set [1] (setting [14]) was determined as 7%. The “Inhibitory activity toward BTK relative to parent ibrutinib” value in data set [4] is given as “about 15 times lower”.
